System: sphingosine and ceramide on tracheal and bronchial epithelial cells
Test: Sphingosine and ceramide levels in airway epithelial cells after inhalation (immunostaining, in situ kinase assays)
Set-up: species or system mouse
Conditions: CF (and CerS2 null) mice, in vivo inhalation
Procedure: Sphingosine levels were determined in the trachea and lung of wildtype (wt), Cftr- and CerS2 null mice (Teichgräber, V. et al. Nat Med 2008, 14, 382-391; Pewzner-Jung et al. J Biol Chem. 2010 Apr. 2; 285(14):10902-10) and human nasal tissues by (i) confocal microscopy analysis of paraffin sections stained with Cy3-coupled anti-sphingosine antibodies and (ii) by newly developed biochemical assays that employed sphingosine kinase assays to determine sphingosine in freshly isolated tracheal epithelial cells and on the surface of tracheal epithelial cells in situ. In the latter experiments the intact trachea was carefully opened and incubated with sphingosine kinase in the presence of [^32]PγATP. Lipids were extracted and the concentration of sphingosine-1-[^32]P was determined. In addition, surface sphingosine was immunoprecipitated from the surface of tracheal epithelial cells by binding of anti-sphingosine antibodies to the intact inner surface of the trachea, followed by washing, lysis, immobilization of immune complexes, extraction of bound sphingosine and quantification of sphingosine by kinase assays. […]
Mice were sacrificed and the trachea immediately removed. […] The TLC plates were exposed to radiography films, the spots were removed from the plates, and the incorporation of [^32P] into ceramide was measured by liquid scintillation counting. […]

CCCCCCCCCCCCC/C=C/[C@@H](O)[C@@H](N)CO (stereo in doubt) [D-erythro-Sphingosine, (2S,3R)-2-aminooctadec-4-ene-1,3-diol]
sphingosine levels on airway epithelial cells after inhalation: restored sphingosine levels

— US20150258043A1, “USE OF SPHINGOID LONG CHAIN BASES AND THEIR ANALOGS IN TREATING AND PREVENTING BACTERIAL INFECTIONS” (YEDA RESEARCH AND DEVELOPMENT CO. LTD., priority 2012, published 2015)
